From patent US8658636B2, “TRPV4 antagonists” (GlaxoSmithKline, LLC, priority 2010, dated 2014) come the findings set out here.

Each structure is given as a SMILES string.

T1 sequence (Q9HBA0 whole entry): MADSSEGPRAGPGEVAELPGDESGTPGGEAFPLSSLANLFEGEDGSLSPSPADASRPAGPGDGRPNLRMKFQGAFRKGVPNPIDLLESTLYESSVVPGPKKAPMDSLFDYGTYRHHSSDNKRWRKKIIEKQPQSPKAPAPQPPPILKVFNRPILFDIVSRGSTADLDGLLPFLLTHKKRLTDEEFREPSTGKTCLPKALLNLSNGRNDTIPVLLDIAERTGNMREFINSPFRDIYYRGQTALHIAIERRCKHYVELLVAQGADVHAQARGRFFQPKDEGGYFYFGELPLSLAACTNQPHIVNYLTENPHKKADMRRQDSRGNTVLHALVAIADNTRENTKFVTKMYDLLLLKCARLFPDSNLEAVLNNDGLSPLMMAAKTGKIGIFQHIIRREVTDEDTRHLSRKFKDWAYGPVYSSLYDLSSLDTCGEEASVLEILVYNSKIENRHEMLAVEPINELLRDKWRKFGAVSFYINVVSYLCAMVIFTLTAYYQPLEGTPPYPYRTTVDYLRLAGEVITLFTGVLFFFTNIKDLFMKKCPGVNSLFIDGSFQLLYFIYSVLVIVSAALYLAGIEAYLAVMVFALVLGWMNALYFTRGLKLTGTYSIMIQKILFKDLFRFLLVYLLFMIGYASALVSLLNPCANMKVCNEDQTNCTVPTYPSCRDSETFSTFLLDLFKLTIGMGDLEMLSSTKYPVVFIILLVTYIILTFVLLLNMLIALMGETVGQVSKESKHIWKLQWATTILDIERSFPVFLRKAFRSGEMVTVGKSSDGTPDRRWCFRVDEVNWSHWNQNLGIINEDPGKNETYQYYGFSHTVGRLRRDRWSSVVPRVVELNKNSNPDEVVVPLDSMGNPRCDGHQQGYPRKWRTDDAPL

The experiment concerns the target T1, human TRPV4 (Homo sapiens, UniProt Q9HBA0).
T1 construct: expressed in transfected cells; host or cells: HEK-293-MSR-II cells transduced with 1% BacMam virus
The experiment in a line: Ligand-gated assay (FLIPR calcium, Fluo4). The experiment is classed as cell-based. The note with it: HEK-293-MSR-II cells transduced with BacMam human TRPV4; inhibition of agonist (EC80)-induced activation; read-out: Human TRPV4 FLIPR pIC50 (converted). Here is the method: TRP channel activation/opening results in an influx of divalent and monovalent cations including calcium. The resulting changes in intracellular calcium are monitored using a calcium selective fluorescent dye Fluo4 (MDS Analytical Technologies). Dye loaded cells were initially exposed to test compound to verify a lack of agonist activity. Cells were subsequently activated by addition of an agonist and inhibition of the agonist-induced activation was recorded. Human embryonic kidney 293 cells stably expressing the macrophage scavenger receptor class II (HEK-293-MSR-II) and transduced with 1% BacMam (J. P. Condreay, S. M. Witherspoon, W. C. Clay and T. A. Kost, Proc Natl Acad Sci 96 (1999), pp. 127-132) virus expressing the human TRPV4 gene were plated at 15000 cells/well in a volume of 50 uL in a 384 well poly-D lysine coated plate. Cells were incubated for 24 hours at 37 degrees and 5% CO2. Media was then aspirated using a Tecan Plate-washer and replaced with 20 uL of dye loading buffer: HBSS, 500 uM Brilliant Black (MDS Analytical Technologies), 2 uM Fluo-4. Dye loaded plates were then incubated in the dark at room temperature for 1-1.5 hours. 10 uL of test compound diluted in HBSS+0.01% Chaps was added to the plate, incubated for 10 min at room temperature in the dark and then 10 uL of agonist was added at a final conc. equal to the agonist EC80. Calcium release was measured using the FLIPRtetra (MDS Analytical Technologies).
Consider `CC1CN(Cc2c(-c3cccc(C(F)(F)F)c3)nc3ccc(S(=O)(=O)C(C)C)cc3c2C(=O)N[C@H](c2ccccc2)C(F)(F)F)CCC1N1CCOCC1` (mixture of isomers) [Example 38, 6-[(1-methylethyl)sulfonyl]-3-{[3-methyl-4-(4-morpholinyl)-1-piperidinyl]methyl}-2-[3-(trifluoromethyl)phenyl]-N-[(1R)-2,2,2-trifluoro-1-phenylethyl]-4-quinolinecarboxamide], for which the IC50 is 10 nM. For `CS(=O)(=O)c1ccc2nc(-c3cccc(C(F)(F)F)c3)c(CN3CCC(N4CCCCC4)CC3)c(C(=O)N[C@H](c3ccccc3)C(F)(F)F)c2c1` [Example 1, 3-(1,4′-bipiperidin-1′-ylmethyl)-6-(methylsulfonyl)-2-[3-(trifluoromethyl)phenyl]-N-[(1R)-2,2,2-trifluoro-1-phenylethyl]-4-quinolinecarboxamide] the value was 3.16 nM. To `CCS(=O)(=O)c1cc2c(C(=O)N[C@H](c3ccccc3)C(F)(F)F)c(CN3CCC(N4CCCCC4)CC3)c(-c3cccc(C(F)(F)F)c3)nc2cc1OC` [Example 3, 3-(1,4′-bipiperidin-1′-ylmethyl)-6-(ethylsulfonyl)-7-(methyloxy)-2-[3-(trifluoromethyl)phenyl]-N-[(1R)-2,2,2-trifluoro-1-phenylethyl]-4-quinolinecarboxamide] belongs 6.31 nM; to `CC(C)Oc1cc2nc(-c3cccc(C(F)(F)F)c3)c(CN3CCC(N4CCOCC4)CC3)c(C(=O)N[C@H](c3ccccc3)C(F)(F)F)c2cc1S(C)(=O)=O` [Example 20, 7-[(1-methylethyl)oxy]-6-(methylsulfonyl)-3-{[4-(4-morpholinyl)-1-piperidinyl]methyl}-2-[3-(trifluoromethyl)phenyl]-N-[(1R)-2,2,2-trifluoro-1-phenylethyl]-4-quinolinecarboxamide], 6.31 nM. Consider `COc1cc2nc(-c3cccc(C(F)(F)F)c3)c(CN3CCC(N4CCCCC4)CC3)c(C(=O)N[C@H](c3ccccc3)C(F)(F)F)c2cc1S(=O)(=O)C(C)C` [Example 21, 3-(1,4′-bipiperidin-1′-ylmethyl)-6-[(1-methylethyl)sulfonyl]-7-(methyloxy)-2-[3-(trifluoromethyl)phenyl]-N-[(1R)-2,2,2-trifluoro-1-phenylethyl]-4-quinolinecarboxamide], for which the IC50 is 3.98 nM. To `COc1cc2nc(-c3cccc(C(F)(F)F)c3)c(CN3CCC(N4CCOCC4)CC3)c(C(=O)N[C@H](c3ccccc3)C(F)(F)F)c2cc1S(=O)(=O)C(C)C` [Example 22, 6-[(1-methylethyl)sulfonyl]-7-(methyloxy)-3-{[4-(4-morpholinyl)-1-piperidinyl]methyl}-2-[3-(trifluoromethyl)phenyl]-N-[(1R)-2,2,2-trifluoro-1-phenylethyl]-4-quinolinecarboxamide] belongs 6.31 nM; to `CCOc1cc2nc(-c3cccc(C(F)(F)F)c3)c(CN3CCC(N4CCOCC4)CC3)c(C(=O)N[C@H](c3ccccc3)C(F)(F)F)c2cc1S(=O)(=O)C(C)C` [Example 23, 7-(ethyloxy)-6-[(1-methylethyl)sulfonyl]-3-{[4-(4-morpholinyl)-1-piperidinyl]methyl}-2-[3-(trifluoromethyl)phenyl]-N-[(1R)-2,2,2-trifluoro-1-phenylethyl]-4-quinolinecarboxamide], 6.31 nM; to `CCOc1cc2nc(-c3cccc(C(F)(F)F)c3)c(CN3CCC(N4CCOCC4)CC3)c(C(=O)N[C@H](c3ccccc3)C(F)(F)F)c2cc1S(=O)(=O)CC` [Example 26, 7-(ethyloxy)-6-(ethylsulfonyl)-3-{[4-(4-morpholinyl)-1-piperidinyl]methyl}-2-[3-(trifluoromethyl)phenyl]-N-[(1R)-2,2,2-trifluoro-1-phenylethyl]-4-quinolinecarboxamide], 10 nM.
